# Values joined by “and” are separate entries in the source; they are usually repeats but may differ in a detail not shown here. Equal values may be shown once.
# Molecular target: T1, D(4) dopamine receptor (Rattus norvegicus, UniProt P30729)
# T1 sequence (P30729 whole entry): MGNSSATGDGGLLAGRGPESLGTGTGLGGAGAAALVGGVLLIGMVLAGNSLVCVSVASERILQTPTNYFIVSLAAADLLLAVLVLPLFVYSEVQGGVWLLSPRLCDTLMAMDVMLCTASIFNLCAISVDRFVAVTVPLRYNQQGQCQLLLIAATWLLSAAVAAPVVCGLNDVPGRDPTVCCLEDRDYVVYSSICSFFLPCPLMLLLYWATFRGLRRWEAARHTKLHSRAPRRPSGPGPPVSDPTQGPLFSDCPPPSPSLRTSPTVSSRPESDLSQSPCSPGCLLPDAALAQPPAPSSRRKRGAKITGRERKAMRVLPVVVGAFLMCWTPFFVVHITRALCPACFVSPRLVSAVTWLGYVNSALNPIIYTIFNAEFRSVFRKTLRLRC
row,Compound,Ki [µM]
1,Nc1nc2c(ncn2[C@@H]2O[C@H](COP(=O)(O)OP(=O)(O)OP(=O)(O)O)[C@@H](O)[C@H]2O)c(=O)[nH]1 [Dopamine+ (GTP+)],0.45
2,CN1CCN(CCCN2c3ccccc3Sc3ccc(S(=O)(=O)N(C)C)cc32)CC1 [NSC_92178],0.053
3,"CCN1CCC[C@H]1CNC(=O)c1c(O)c(Cl)cc(Cl)c1OC [3,5-Dichloro-N-(1-ethyl-pyrrolidin-2-ylmethyl)-2-hydroxy-6-methoxy-benzamide (raclopride)]",0.237
4,"O=c1[nH]c2ccccc2n1C1CCN(CCCC(c2ccc(F)cc2)c2ccc(F)cc2)CC1 [1-(1-(4,4-bis(4-fluorophenyl)butyl)piperidin-4-yl)-1H-benzo[d]imidazol-2(3H)-one]",0.043
5,CC(C)C[C@H]1C(=O)N2CCC[C@H]2[C@]2(O)O[C@](NC(=O)[C@@H]3C=C4c5cccc6[nH]c(Br)c(c56)C[C@H]4N(C)C3)(C(C)C)C(=O)N12 [Bromocriptine+ (GTP+)],0.34

# Molecular target: T2, Dopamine receptor D4 (Canis lupus familiaris, UniProt Q589Y6)
# T2 sequence (Q589Y6 whole entry): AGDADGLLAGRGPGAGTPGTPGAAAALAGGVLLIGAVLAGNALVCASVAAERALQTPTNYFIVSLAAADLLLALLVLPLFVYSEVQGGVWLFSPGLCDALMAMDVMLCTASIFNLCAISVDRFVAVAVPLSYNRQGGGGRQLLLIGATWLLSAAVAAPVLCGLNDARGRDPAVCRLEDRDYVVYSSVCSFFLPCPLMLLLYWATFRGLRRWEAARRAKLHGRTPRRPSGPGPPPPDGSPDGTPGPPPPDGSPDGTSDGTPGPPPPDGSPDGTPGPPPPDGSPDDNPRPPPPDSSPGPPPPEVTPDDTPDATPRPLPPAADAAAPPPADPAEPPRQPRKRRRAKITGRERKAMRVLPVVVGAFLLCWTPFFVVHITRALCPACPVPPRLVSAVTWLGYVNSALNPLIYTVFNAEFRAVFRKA
row,Compound,Ki
1,"NCC(O)c1ccc(O)c(O)c1 (stereo not drawn) [Noradrenaline,(+)]",6 µM and 1.76 µM
2,NCCc1ccc(O)c(O)c1,0.0075 µM and 0.028 µM
3,"O=C(c1ccc(F)cc1)C1CCN(CCn2c(=O)[nH]c3ccccc3c2=O)CC1 [3-(2-{4-[(4-fluorophenyl)carbonyl]piperidin-1-yl}ethyl)-1,2,3,4-tetrahydroquinazoline-2,4-dione]",0.192 µM and 0.148 µM
4,CN1CCc2cccc3c2[C@H]1Cc1ccc(O)c(O)c1-3 [APOKYN],0.002 µM and 0.0041 µM
5,CN1CCN(CCCN2c3ccccc3Sc3ccc(C(F)(F)F)cc32)CC1,0.0012 µM and 0.003 µM
6,"CN1CCN(C2=c3ccccc3=Nc3ccc(Cl)cc3N2)CC1 [6-chloro-10-(4-methylpiperazin-1-yl)-2,9-diazatricyclo[9.4.0.0^{3,8}]pentadeca-1,3(8),4,6,10,12,14-heptaene]",0.009 µM
7,NCCc1c[nH]c2ccc(O)cc12 [[3H]-5-HT],4.18 µM
8,CCCN1CCC[C@@H]2Cc3n[nH]cc3C[C@H]21 [NSC_54562],0.0048 µM and 0.046 µM

# Molecular target: D(2) dopamine receptor (Homo sapiens, UniProt P14416)
# Sequence (P14416 whole entry): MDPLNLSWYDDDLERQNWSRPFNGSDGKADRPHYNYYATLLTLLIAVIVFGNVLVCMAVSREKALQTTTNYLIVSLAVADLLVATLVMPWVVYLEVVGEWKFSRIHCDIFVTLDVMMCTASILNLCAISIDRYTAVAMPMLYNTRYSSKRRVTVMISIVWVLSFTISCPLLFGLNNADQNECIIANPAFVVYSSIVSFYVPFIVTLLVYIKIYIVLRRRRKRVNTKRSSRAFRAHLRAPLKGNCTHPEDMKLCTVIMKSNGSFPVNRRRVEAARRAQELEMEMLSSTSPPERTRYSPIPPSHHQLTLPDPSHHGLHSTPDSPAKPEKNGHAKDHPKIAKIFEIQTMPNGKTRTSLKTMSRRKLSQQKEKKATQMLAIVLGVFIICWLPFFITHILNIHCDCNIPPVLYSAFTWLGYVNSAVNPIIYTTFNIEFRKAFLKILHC
row,Compound,Ki [µM]
1,CC(C)C[C@H]1C(=O)N2CCC[C@H]2[C@]2(O)O[C@](NC(=O)[C@@H]3C=C4c5cccc6[nH]c(Br)c(c56)C[C@H]4N(C)C3)(C(C)C)C(=O)N12 [Bromocriptine+ (GTP+)],0.0126

# From BindingDB's records for doi:10.1038/350610a0 (University of Toronto, 1991)
